Laboratory results: the supplement of paper PMC7840683
Where a name gives a salt, the structure may show the parent alone. ± gives the standard deviation of the averaged measurements.

System: HepaRG
Test: LDH release cytotoxicity, % of total lysis control; higher = more cytotoxic
Conditions: 48 h
Method in brief: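 Eight-point half-log series of test chemicals, the highest at 100 µM, were given in duplicate for 48 h to single-lot HepaRG cells on collagen I-coated 96-well plates in serum-free induction medium with 0.5% DMSO. A Tecan Safire read resorufin fluorescence from CytoTox-ONE as a measure of LDH in 50 µL spent medium, with 0.1% Triton X in total lysis wells. Percent cytotoxicity was normalized to on-plate vehicle and total lysis controls and averaged over the duplicates.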

SMILES	LDH release cytotoxicity (0.03162 µM) [%]	LDH release cytotoxicity (0.1 µM) [%]	LDH release cytotoxicity (0.3162278 µM) [%]	LDH release cytotoxicity (1 µM) [%]	LDH release cytotoxicity (3.16228 µM) [%]	LDH release cytotoxicity (10 µM) [%]	LDH release cytotoxicity (31.6228 µM) [%]	LDH release cytotoxicity (100 µM) [%]	other results
Cc1ccc(-c2c(Cl)nc(C#N)n2S(=O)(=O)N(C)C)cc1 [Cyazofamid]	1.31 ± 1.8	-1.5 ± 0.69	-1.4 ± 1.1	-0.689 ± 0.31	-1.5 ± 0.35	43.2 ± 2.3	52.8 ± 0.71	53.7 ± 2.8	
O=C(O)C1(C(=O)Nc2ccc(Cl)cc2Cl)CC1 [Cyclanilide]	0.835 ± 0.011	-0.444 ± 1.4	-0.309 ± 0.12	-1.03 ± 0.15	-0.632 ± 1.9	0.531 ± 0.17	2.66 ± 0.46	4.54 ± 2	
CCSC(=O)N(CC)C1CCCCC1 [Cycloate]	-0.645 ± 0.33	-0.297 ± 0.34	-0.471 ± 0.49	-0.678 ± 0.68	0.089 ± 0.45	0.922 ± 0.035	0.446 ± 0.0094	1.91 ± 0.022	
OC1CCCCC1 [Cyclohexanol]	-1.14 ± 0.82	-1.56 ± 0.45	-2.24 ± 0.84	-1.92 ± 0.44	-1.56 ± 0.67	-0.208 ± 0.47	-0.773 ± 0.11	-0.073 ± 0.72	
O=C1CCCCC1 [Cyclohexanone]	-0.709 ± 0.56	-1.76 ± 0.34	-1.81 ± 0.036	-1.07 ± 0.29	-1.46 ± 0.24	-1.17 ± 0.039	-0.292 ± 0.4	0.737 ± 0.51	
CC1CC(C)C(=O)C(C(O)CC2CC(=O)NC(=O)C2)C1 (stereo not given) [Cycloheximide]	-0.96 ± 0.28	-0.691 ± 0.23	-1.8 ± 0.17	-1.99 ± 0.4	-1.19 ± 0.83	3.47 ± 0.21	24 ± 0.46	61.9 ± 1.8	
NC1CCCCC1 [Cyclohexylamine]	-1.45 ± 0.53	-1.58 ± 0.49	-1.84 ± 0.28	-2.2 ± 0.96	-2.32 ± 0.31	-1.74 ± 0.66	-0.752 ± 0.11	0.0324 ± 0.072	
O=C(c1ccccc1)C1CCCCC1 [Cyclohexylphenylketone]	-1.79 ± 0.41	-2.63 ± 2.5	-0.957 ± 0.23	-1.4 ± 1	-1.03 ± 1	-0.851 ± 0.87	-0.8 ± 0.37	0.0978 ± 0.62	
CC1=C2CC3C(CC=C4CC(O)CCC43C)C2CCC12OC1CC(C)CNC1C2C (stereo not given) [Cyclopamine]									LDH release cytotoxicity (0.015811 µM): -1.27 ± 1.2%; LDH release cytotoxicity (0.05 µM): -3.64 ± 1.3%; LDH release cytotoxicity (0.158114 µM): -4.31 ± 0.75%; LDH release cytotoxicity (0.5 µM): -4.01 ± 0.28%; LDH release cytotoxicity (1.58114 µM): -4.1 ± 0.11%; LDH release cytotoxicity (5 µM): -3.94 ± 0.67%; LDH release cytotoxicity (15.8114 µM): -2.45 ± 0.84%; LDH release cytotoxicity (50 µM): 0.363 ± 0.014%
O=P1(N(CCCl)CCCl)NCCCO1 (stereo not given) [Cyclophosphamide monohydrate]	-1.01 ± 0.51	-1.29 ± 0.25	-1.53 ± 0.08	-1.41 ± 0.039	-1.5 ± 0.48	-0.484 ± 0.23	-0.76 ± 0.39	1.23 ± 0.55	
CC1(C)C(C=C(Cl)Cl)C1C(=O)OC(C#N)c1ccc(F)c(Oc2ccccc2)c1 (stereo not given) [Cyfluthrin]		-1.05 ± 0.37		-1.61 ± 2.3	-1.18 ± 0.56	-0.972 ± 1.4	-0.561 ± 1.3	-0.122 ± 0.2	LDH release cytotoxicity (0.031623 µM): 0.499 ± 1.5%; LDH release cytotoxicity (0.316228 µM): -1.18 ± 2.4%
CCCCOC(=O)C(C)Oc1ccc(Oc2ccc(C#N)cc2F)cc1 (stereo not given) [Cyhalofop-butyl]									LDH release cytotoxicity (0.0314647 µM): -1.16 ± 0.16%; LDH release cytotoxicity (0.0995 µM): -1.07 ± 0.88%; LDH release cytotoxicity (0.3146466 µM): -0.775 ± 0.25%; LDH release cytotoxicity (0.995 µM): -1.29 ± 0.31%; LDH release cytotoxicity (3.14647 µM): -0.485 ± 0.35%; LDH release cytotoxicity (9.95 µM): 0.552 ± 1.1%; LDH release cytotoxicity (31.4647 µM): -0.564 ± 0.059%; LDH release cytotoxicity (99.5 µM): 0.894 ± 1%
CCNC(=O)NC(=O)C(C#N)=NOC [Cymoxanil]	-0.835 ± 0.83	-1.41 ± 0.052	-2 ± 0.79	-1.41 ± 0.59	-2.17 ± 0.8	-0.806 ± 1.1	-0.354 ± 1	1.89 ± 2.3	
CC1(C)C(C=C(Cl)Cl)C1C(=O)OC(C#N)c1cccc(Oc2ccccc2)c1 (stereo not given) [Cypermethrin]	-0.819 ± 0.38	-1.77 ± 0.13	-1.92 ± 0.05	-2.15 ± 0.89	-1.45 ± 0.7	-1.44 ± 0.55	-0.803 ± 0.26	-0.801 ± 0.4	
CC(C1CC1)C(O)(Cn1cncn1)c1ccc(Cl)cc1 (stereo not given) [Cyproconazole]									LDH release cytotoxicity (0.0314647 µM): -2.83 ± 0.84%; LDH release cytotoxicity (0.0995 µM): -2.41 ± 1.4%; LDH release cytotoxicity (0.3146466 µM): -3.23 ± 0.48%; LDH release cytotoxicity (0.995 µM): -3.32 ± 0.63%; LDH release cytotoxicity (3.14647 µM): -3.1 ± 0.6%; LDH release cytotoxicity (9.95 µM): -2.59 ± 0.26%; LDH release cytotoxicity (31.4647 µM): -2.12 ± 1.1%; LDH release cytotoxicity (99.5 µM): 6.32 ± 1.1%
Cc1cc(C2CC2)nc(Nc2ccccc2)n1 [Cyprodinil]	-1.37 ± 0.96	-0.753 ± 0.69	-0.874 ± 1.2	-1.16 ± 0.7	-0.24 ± 0.55	-0.264 ± 0.58	0.71 ± 0.5	11.3 ± 0.15	
CC(=O)OC1(C(C)=O)CCC2C3C=C(Cl)C4=CC(=O)C5CC5C4(C)C3CCC21C (stereo not given) [Cyproterone acetate]	-0.255 ± 0.092	-1.64 ± 0.93	-0.773 ± 0.19	-0.77 ± 0.3	-0.346 ± 0.2	0.58 ± 0.28	10.4 ± 0.73	46.5 ± 1.5	
Nc1nc(N)nc(NC2CC2)n1 [Cyromazine]	-1.4 ± 0.21	-0.914 ± 1.1	-0.958 ± 0.84	-1.75 ± 0.58	-1.74 ± 0.52	-1.14 ± 0.16	-1.52 ± 0.36	0.201 ± 0.23	
Nc1ccn(C2OC(CO)C(O)C2O)c(=O)n1 (stereo not given) [Cytarabine hydrochloride]	-0.941 ± 0.69	-1.96 ± 0.65	-0.891 ± 0.29	-1.56 ± 0.86	-0.827 ± 0.49	0.301 ± 1.5	1.76 ± 1.2	4.47 ± 2.3	
OC[C@@H](O)[C@@H](O)[C@H](O)[C@H](O)CO [D-Mannitol]		-2.88 ± 0.9		-2.73 ± 0.41	-2.39 ± 0.089	-1.31 ± 0.43	0.669 ± 0.23	3.29 ± 0.076	LDH release cytotoxicity (0.031623 µM): -0.135 ± 0.17%; LDH release cytotoxicity (0.316228 µM): -2.85 ± 0.69%
